The subject of one test is OVCAR-8. Put plainly: JFCR39 cancer cell growth inhibition test, OVCAR-8. The format is cell-based. The following applies: Homo sapiens; OVCAR-8, Ov (Ovarian).
The test system of a further test is NCI-H226. Put plainly: JFCR39 cancer cell growth inhibition test, NCI-H226. The test is classed as cell-based. The conditions noted are these: Homo sapiens; NCI-H226, Lu (Lung).
Another test relates to HBC-5. Description: JFCR39 cancer cell growth inhibition test, HBC-5. The test is classed as cell-based. The following applies: Homo sapiens, HBC5; HBC-5, Br (Breast).
The next test concerns MKN45. Description: JFCR39 cancer cell growth inhibition test, MKN45. The following applies: Homo sapiens, MKN-45; MKN45, St (Stomac). The format is cell-based.
The next test has as its target human DHOD (Homo sapiens, UniProt Q02127). Put plainly: Measurement of DHOD inhibitory activity (DCIP reduction, end point assay). The format is biochemical. On the procedure: The compounds of the present invention were used and measured for their DHOD inhibitory activity at concentrations of 200 nM and 1000 nM.
Reduction of DCIP was measured at 600 nm over 20 minutes.

The next test concerns NCI-H522. Put plainly: JFCR39 cancer cell growth inhibition test, NCI-H522. The test is classed as cell-based. The conditions noted are these: Homo sapiens; NCI-H522, Lu (Lung).
The next test relates to HBC-4. Put plainly: JFCR39 cancer cell growth inhibition test, HBC-4. The following applies: Homo sapiens, HBC4; HBC-4, Br (Breast). The format is cell-based.
A further test deals with HCC2998. Put plainly: JFCR39 cancer cell growth inhibition test, HCC2998. The test is classed as cell-based. The conditions noted are these: Homo sapiens, HCC 2998; HCC2998, Co (Colon).

Chain of human DHOD (Q02127 whole entry): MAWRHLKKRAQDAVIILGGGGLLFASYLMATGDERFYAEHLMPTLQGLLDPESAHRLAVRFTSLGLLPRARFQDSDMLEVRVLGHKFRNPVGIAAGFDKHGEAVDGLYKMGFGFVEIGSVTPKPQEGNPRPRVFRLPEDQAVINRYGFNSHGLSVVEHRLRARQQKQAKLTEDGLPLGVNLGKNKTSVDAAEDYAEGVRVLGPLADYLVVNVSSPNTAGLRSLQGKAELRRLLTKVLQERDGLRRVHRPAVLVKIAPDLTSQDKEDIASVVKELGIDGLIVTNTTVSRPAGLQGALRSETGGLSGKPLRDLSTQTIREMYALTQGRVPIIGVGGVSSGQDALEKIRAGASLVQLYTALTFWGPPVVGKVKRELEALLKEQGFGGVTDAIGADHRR

For orientation: GI50 means the concentration giving 50% growth inhibition. Broadly, the inhibition is the percentage by which the read-out fell short of the control. The term IC50 denotes the midpoint of a concentration-inhibition curve. Regarding `C/C(=C\Cc1c(O)c(Cl)c(C)c(C=O)c1O)CC/C=C(\C)[C@@H]1CC(=O)C(C)(C)O1` (racemic) [Ascofuranone, dl-5-Chloro-2,4-dihydroxy-6-methyl-3-[(2E,6E)-3-methyl-7-(3,3-dimethyl-4-oxo-2-oxacyclopentyl)-2,6-octadienyl]benzaldehyde], the GI50 was 9.5 µM with OVCAR-8; 15 µM with NCI-H226; 28 µM in the test with HBC-5; 10 µM in the test on MKN45; 8.4 µM in the test on NCI-H522; 9.1 µM in the test on HBC-4. In addition, the GI50 in the test on HCC2998 was found to be 17 µM. Also, on human DHOD (read-out: DHOD inhibition rate (%) 200 nM, 200 nM compound), the inhibition at 0.2 µM was found to be 73%. Besides, the IC50 at human DHOD (read-out: IC50 (nM) human DHOD (HsDHOD)) came to 38 nM.

(Values after patent US9737504B2, “Dihydroorotic and acid dehydrogenase inhibitor” (NAI INC., priority 2012, dated 2017).)
